One experiment relates to HCT-116. The experiment can be described thus: Antiproliferative MTT assay, HCT-116. The format is cell-based. The conditions noted are these: Homo sapiens, HCT-116, read-out: Antiproliferative activity IC50 ± SEM, HCT-116. Background: Tetrazolium dyes change colour on reduction, which living cells bring about.
The next experiment concerns MCF-7. The experiment can be described thus: Antiproliferative MTT assay, MCF-7. Format: cell-based, human. The conditions noted are these: Homo sapiens, MCF7, read-out: Antiproliferative activity IC50 ± SEM, MCF-7.
The test system of a further experiment is PC-3. The experiment can be described thus: Antiproliferative MTT assay, PC-3. Format: cell-based. The conditions noted are these: Homo sapiens, PC-3, read-out: Antiproliferative activity IC50 ± SEM, PC-3.

One may read the IC50 as the point on the concentration scale where inhibition reaches its midpoint.

In the case of `COc1ccc(C=CC(=O)c2ccc(NC(=O)CN3CCN(c4ccc(Cl)cc4)CC3)cc2)cc1` [4j, 2-(4-(4-Chlorophenyl)piperazin-1-yl)-N-(4-(3-(4-methoxyphenyl)acryloyl)phenyl)acetamide], the IC50 worked out at 27.4 ± 1.9 µM with HCT-116, 42.9 ± 2.5 µM in the experiment with MCF-7 and 66.8 ± 3.5 µM in the experiment with PC-3.
Regarding `COc1ccc(C=CC(=O)c2ccc(NC(=O)CN3CCN(c4ccc(OC)cc4)CC3)cc2)cc1` [4c, N-(4-(3-(4-Methoxyphenyl)acryloyl)phenyl)-2-(4-(4-methoxyphenyl)piperazin-1-yl)acetamide], the results for the IC50 in the experiment on HCT-116, in the experiment on MCF-7 and in the experiment with PC-3 were 18.1 ± 1.4 µM, 28.3 ± 1.8 µM and 34.5 ± 2.1 µM, respectively.
For `O=C(CN1CCN(c2ccc(Cl)cc2)CC1)Nc1ccc(C(=O)C=Cc2ccccc2)cc1` [4h, 2-(4-(4-Chlorophenyl)piperazin-1-yl)-N-(4-cinnamoylphenyl)acetamide], the values for the IC50 in the experiment with HCT-116, with MCF-7 and in the experiment with PC-3 were 49.6 ± 2.8 µM, 41.3 ± 2.4 µM and 20.4 ± 1.5 µM, respectively.
With `COc1ccc(N2CCN(CC(=O)Nc3ccc(C(=O)C=Cc4ccccc4)cc3)CC2)cc1` [4a, N-(4-Cinnamoylphenyl)-2-(4-(4-methoxyphenyl)piperazin-1-yl)acetamide], the IC50 in the experiment on HCT-116 was determined as 68.6 ± 3.7 µM; with MCF-7 it was 72.4 ± 3.7 µM; in the experiment on PC-3, 78.2 ± 4 µM.
For `COc1cc(C=CC(=O)c2ccc(NC(=O)CN3CCN(c4ccc(Cl)cc4)CC3)cc2)cc(OC)c1OC` [4k, 2-(4-(4-Chlorophenyl)piperazin-1-yl)-N-(4-(3-(3,4,5-trimethoxyphenyl)acryloyl)phenyl)acetamide], the values for the IC50 in the experiment with HCT-116, with MCF-7 and in the experiment with PC-3 were 34.8 ± 2.2 µM, 17.9 ± 1.4 µM and 42.9 ± 2.5 µM, respectively.
Turning to `COc1ccc(N2CCN(CC(=O)Nc3ccc(C(=O)C=Cc4ccc(Cl)cc4Cl)cc3)CC2)cc1` [4f, N-(4-(3-(2,4-Dichlorophenyl)acryloyl)phenyl)-2-(4-(4-methoxyphenyl)piperazin-1-yl)acetamide], the IC50 with HCT-116, in the experiment with MCF-7 and in the experiment on PC-3 was above 100 µM each time.
As for `COc1ccc(N2CCN(CC(=O)Nc3ccc(C4=NN(C(C)=O)C(c5ccc(Cl)cc5Cl)C4)cc3)CC2)cc1` (stereo not drawn) [5f, N-(4-(1-Acetyl-5-(2,4-dichlorophenyl)-4,5-dihydro-1H-pyrazol-3-yl)phenyl)-2-(4-(4-methoxyphenyl)piperazin-1-yl)acetamide], the IC50 in the experiment with HCT-116 amounted to 54 ± 3.2 µM; in the experiment on MCF-7 it was 47.5 ± 2.6 µM; in the experiment with PC-3, 57.8 ± 3.3 µM.
Take `CC(=O)N1N=C(c2ccc(NC(=O)CN3CCN(c4ccc(Cl)cc4)CC3)cc2)CC1c1ccccc1` (stereo not drawn) [5h, N-(4-(1-Acetyl-5-phenyl-4,5-dihydro-1H-pyrazol-3-yl)phenyl)-2-(4-(4-chloro-phenyl)piperazin-1-yl)acetamide]: the figures for the IC50 with HCT-116, with MCF-7 and in the experiment on PC-3 were 74.9 ± 4.1 µM, 85.4 ± 4.6 µM and 87.6 ± 4.3 µM, respectively.
For `O=C(CN1CCN(c2ccc(Cl)cc2)CC1)Nc1ccc(C(=O)C=Cc2ccc(Cl)cc2Cl)cc1` [4m, 2-(4-(4-Chlorophenyl)piperazin-1-yl)-N-(4-(3-(2,4dichlorophenyl)acryloyl)phenyl)acetamide], in that order: 44.8 ± 2.6 µM, 35.8 ± 2.2 µM and 55.2 ± 3.2 µM.
For `COc1ccc(N2CCN(CC(=O)Nc3ccc(C(=O)C=Cc4ccc(Br)cc4)cc3)CC2)cc1` [4e, N-(4-(3-(4-Bromophenyl)acryloyl)phenyl)-2-(4-(4-methoxyphenyl)piperazin-1-yl)acetamide], in that order: 64.8 ± 3.5 µM, 52.5 ± 2.9 µM and 73.9 ± 3.8 µM.
On to `COc1ccc(N2CCN(CC(=O)Nc3ccc(C4=NN(C(C)=O)C(c5ccc(Br)cc5)C4)cc3)CC2)cc1` (stereo not drawn) [5e, N-(4-(1-Acetyl-5-(4-bromophenyl)-4,5-dihydro-1H-pyrazol-3-yl)phenyl)-2-(4-(4-methoxyphenyl)piperazin-1-yl)acetamide], for which the IC50 came to 26.8 ± 2 µM in the experiment with HCT-116, 15.2 ± 1.3 µM in the experiment with MCF-7 and 29.6 ± 1.9 µM with PC-3.

For the origin of these results see publication PMC11951252 (RSC Advances, 2025).
